These are literature values, as cited in patent US20070292469A1, “Antimicrobial composition” (priority 2005, published 2007).

This series concerns wide range of microorganisms. The settings on record: literature statement (Block, Disinfection, Sterilization, and Preservation 4th ed. 1991).

Take monoethanolamines: the antimicrobial activity entry was “lack dramatic antimicrobial activity”.

With “α-4-[1-tris(2-hydroxyethyl) ammonium-2-butenyl] poly[1-dimethylammonium-2-butenyl]-ω-tris(2-hydroxyethyl)ammonium chloride [polyquaternium 1]”, the antimicrobial activity entry was “significant antimicrobial activity”.
